Laboratory results published in patent US6750008B1, “Methods and compositions for inhibition of membrane fusion-associated events, including HIV transmission” (priority 1999, dated 2004).
Entries after “also recorded” stand apart in the source; their conditions may differ.

Legend:
CEM cells = assay: Cell proliferation and toxicity assay; format: cell-based; conditions: 3 days, highest concentration tested 40 μg/ml
Experimental: Cell proliferation and toxicity assay: Approximately 3.8×10^5 CEM cells for each peptide concentration were incubated for 3 days at 37° C. in T25 flasks. Peptides tested were DP178 (SEQ ID:1) and DP-116 (SEQ ID:9), as described in FIG. 1. Peptides were synthesized as described, above, in Section 6.1. The concentrations of each peptide used were 0, 2.5, 10, and 40 μg/ml. Cell counts were taken at incubation times of 0, 24, 48, and 72 hours.

HIV-1LAI virus [1] = assay: Cell fusion assay (HIV-1 induced syncytia formation); format: cell-based
Excerpt: The results of several such experiments are presented herein.

RSV = assay: Anti-RSV antiviral activity assay (syncytial formation, Hep-2 cells); format: cell-based, respiratory syncytial virus; conditions: purified peptides
Experimental: The assay utilized herein tested the ability of the peptides to disrupt the ability of HEp2 cells acutely infected with RSV (i.e., cells which are infected with a multiplicity of infection of greater than 2) to fuse and cause syncytial formation on a monolayer of uninfected an uninfected line of Hep-2 cells. The lower the observed level of fusion, the greater the antiviral activity of the peptide was determined to be. […]
After incubation, cells in control wells were checked for fusion centers, media was removed from the wells, followed by addition, to each well, of either Crystal Violet stain or XTT. […] The number of syncytia per well were then counted, using a dissecting microscope.
With respect to XTT (2,3-bis[2-Methoxy-4-nitro-5-sulfophenyl]-2H-tetrazolium-5-carboxyanilide inner salt), 50 μl XTT (1 mg/ml in RPMI buffered with 100 mM HEPES, pH 7.2-7.4, plus 5% DMSO) were added to each well. The OD450/690 was measured (after blanking against growth medium without cells or reagents, and against reagents) according to standard procedures. […]

HIV-1LAI virus [2] = conditions: FIG. 1 legend
Experimental: Synthetic peptides were incubated at 37° C. with either 247 TCID50 (for experiment depicted in FIG. 2), or 62 TCID50 (for experiment depicted in FIG. 3) units of HIV-1LAI virus or 25 TCID50 units of HIV-2NIHZ and CEM CD4^+ cells at peptide concentrations of 0, 0.04, 0.4, 4.0, and 40 μg/ml for 7 days. The resulting reverse transcriptase (RT) activity in counts per minute was determined using the assay described, below, in Section 6.1.5. See Reed, L. J. et al., 1938, Am. J. Hyg. 27: 493-497 for an explanation of TCID50 calculations.
The micro-reverse transcriptase (RT) assay was adapted from Goff et al. (Goff, S. et al., 1981, J. Virol. 38:239-248) and Willey et al. (Willey, R. et al., 1988, J. Virol. 62:139-147). Supernatants from virus/cell cultures are adjusted to 1% Triton-X100. A 10 μl sample of supernatant was added to 50 μl of RT cocktail in a 96-well U-bottom microtitre plate and the samples incubated at 37° C. for 90 min. The RT cocktail contained 75 mM KCl, 2 mM dithiothreitol, 5 mM MgCl2, 5 μg/ml poly A (Pharmacia, cat. No. 27-4110-01), 0.25 units/ml oligo dT (Pharmacia, cat. No. 27-7858-01), 0.05% NP40, 50 mM Tris-HCl, pH 7.8, 0.5 μM non-radioactive dTTP, and 10 μCi/ml ^32P-dTTP (Amersham, cat. No. PB.10167).
After the incubation period, 40 μl of reaction mixture was applied to a Schleicher and Schuell (S+S) NA45 membrane (or DE81 paper) saturated in 2×SSC buffer (0.3M NaCl and 0.003M sodium citrate) held in a S+S Minifold over one sheet of GB003 (S+S) filter paper, with partial vacuum applied. Each well of the minifold was washed four times with 200 μl 2×SSC, under full vacuum. The membrane was removed from the minifold and washed 2 more times in a pyrex dish with an excess of 2×SSC. Finally, the membrane was drained on absorbent paper, placed on Whatman #3 paper, covered with Saran wrap, and exposed to film overnight at −70° C.
DP178 (SEQ ID:1) was next tested for its ability to block CD-4^+ CEM cell infection by cell free HIV-1 virus. […]

[3] = target: T1, DP107-like domain of the RSV F1 protein (Human respiratory syncytial virus A, UniProt P03420); format: binding
T1 construct: made in house
Experimental: After incubation and washing, unbound Fab-d is removed from the plates and bound Fab-d is quantitated. A no-inhibitor control should also be conducted.
Such an assay takes advantages of accepted radioligand and receptor binding principles.
Specifically, the DNA sequence corresponding amino acid residues 142-302 of the RSV F1 protein was amplified by PCR and cloned into the Xmn I site of the expression vector pMal-p2 (New England Biolab) to give MF5.1. These amino acid residues correspond to the extracellular domain of the RSV F1 protein including its DP107 region but excluding the DP178 region.
Cell fusion assays were performed with each of the peptides as described in Section 17 above. The binding affinity of each peptide was also measured in a competitive binding assay described in Section 5.6.1 above, wherein the concentration of each peptide necessary to bind to the M5.1 fusion protein (i.e., the B50 value), and thereby disrupt binding of biotin labeled T112 (T888) to the fusion protein, was measured.

[4] = target: viral gp41 of HIV-1 (on virions and HIV-1 infected cells) (HIV-1) (UniProt P03377); assay: cell-based or functional assay

T1 sequence (P03420 142-302): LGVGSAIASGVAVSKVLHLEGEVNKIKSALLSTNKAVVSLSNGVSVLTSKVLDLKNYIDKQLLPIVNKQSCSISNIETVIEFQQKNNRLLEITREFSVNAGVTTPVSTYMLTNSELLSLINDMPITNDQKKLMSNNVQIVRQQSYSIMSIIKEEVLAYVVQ

In the case of enfuvirtide, the “cytotoxic effects on cells in culture” value (CEM cells) is reported as “non-cytotoxic; also recorded: no cytotoxic effects”.

In the case of “DP-180: control peptide incorporating the amino acid residues of DP178 in a scrambled sequence (NNLLRAIEAQQHLLQLTVW; Core polypeptide) [reference compound]”, the anti-fusogenic activity (HIV-1LAI virus [1]; at 40 μg/ml) is reported as “no evidence of anti-fusogenic activity”.

For “H-YTNTIYTLLEESQNQQEKNEQELLELDKWASLWNWF-OH [DP-185]”, the “block of HIV-1-mediated syncytia formation” value (HIV-1LAI virus [1]) was “block HIV-1-mediated syncytia formation” and the “inhibitory activity on HIV-1-induced syncytia formation, lowest concentration tested” value (HIV-1LAI virus [1]; FIG. 4) was ≤ 312.5 ng/mL.

`CC[C@H](C)[C@H](NC(=O)[C@H](Cc1ccccc1)NC(=O)[C@H](C)NC(=O)[C@H](CC(C)C)NC(=O)[C@H](CO)NC(=O)[C@H](CCC(N)=O)NC(=O)[C@H](CC(N)=O)NC(=O)[C@@H](NC(=O)[C@H](CCCCN)NC(=O)[C@H](CCC(=O)O)NC(=O)[C@H](CC(N)=O)NC(=O)[C@@H](NC(=O)[C@H](CCC(N)=O)NC(=O)[C@H](CO)NC(=O)[C@@H](NC(=O)[C@H](CO)NC(=O)[C@H](C)NC(=O)[C@H](CC(=O)O)NC(=O)[C@H](Cc1ccccc1)NC(=O)[C@H](CCC(=O)O)NC(=O)[C@H](CC(=O)O)NC(=O)[C@H](CO)NC(=O)[C@@H]1CCCN1C(=O)[C@H](Cc1ccccc1)NC(=O)[C@@H](NC(C)=O)C(C)C)[C@@H](C)CC)C(C)C)[C@@H](C)CC)C(=O)N[C@@H](CCCNC(=N)N)C(=O)N[C@@H](CCCCN)C(=O)N[C@@H](CO)C(=O)N[C@@H](CC(=O)O)C(=O)N[C@@H](CCC(=O)O)C(=O)N[C@@H](CC(C)C)C(=O)N[C@@H](CC(C)C)C(=O)N[C@@H](Cc1c[nH]cn1)C(=O)N[C@@H](CC(N)=O)C(=O)N[C@H](C(N)=O)C(C)C` [T112] was tested, and the “anti-RSV antiviral activity” value (RSV) was “substantial antiviral activity”.

“Ac-LQARILAVERYLKDQQQ-NH2 [DP-116, reference compound]” was tested, and the “inhibition of HIV-1 cell free virus infection” value (HIV-1LAI virus [2]) was “negative for inhibition of HIV-1 infection”.

“Ac-VYPSDEFDASISQVNEKINQALAYIRKADELLHNV-NH2 [T786]” was tested, and the “binding affinity relative to T112” value [3] was “approximately ten-fold less” and the Kd ([3]; B50, competition with biotin labeled T112 (T888), read-out: binding affinity) was 19 nM.

With M41-P (from UniProt P03377 540-686) the Cell fusion (IC90) [4] was 83 nM and the HIV infectivity (IC90) [4] was 66 nM.

With “M41 (maltose binding fusion protein of the gp41 ectodomain) (from UniProt P0AEX9 27-392; P03377 540-686)” the Cell fusion (IC90) [4] was > 50000 nM and the HIV infectivity (IC90) [4] was > 16000 nM.

With M41-PΔ178 (from UniProt P03377 540-642) the Cell fusion (IC90) [4] was > 50000 nM and the HIV infectivity (IC90) [4] was > 8000 nM.
